Test results: patent publication US6878804B1, “Synthesis of template-fixed β-hairpin loop mimetics” (University of Zurich, priority 1999, dated 2005)
Non-standard residues stand in square brackets, D forms with d. Residues, ends and D or L forms follow the SMILES beside them.

Molecular target: platelet-derived growth factor β-receptor (PDGFR-β) (Homo sapiens, UniProt P09619)
Test: Solid-phase assay: displacement of 125I-PDGF-BB from immobilized PDGFR-β
Format: binding
Conditions: competition with 125I-PDGF-BB, 3 h at room temperature, immobilized purified PDGFR-β; read-out: Assay I50
Description: Direct immobilization of platelet-derived growth factor […] is performed by overnight incubation in immunosorbent 96-well plates (Nunc) at 4° C. using 100 ng of purified protein in 100 μl of 15 mM Na2CO3, 35 mM NaHCO3, pH 9.6. The plates are washed once with tris-buffered saline (TBS, 20 mM Tris-HCl, 150 mM NaCl, pH 7.4), and nonspecific adsorption is blocked by at least 1 h of incubation with TBS plus 1% bovine serum albumin (BSA). Following washing with TBS plus 0.1% Tween, 3000 cpm of ^125I-PDGF-BB and increasing amounts of unlabeled PDGF-BB or the peptide derivative of formula I are added to duplicate wells and incubated for 3 h at room temperature in 0.1% Tween, 1 mM CaCl2, 1 mM MgCl2 and 1% BSA. The plates are washed three times with TBS plus 0.1% Tween, and bound ligand is removed with 0.1 M citric acid, pH 2.5, prior to counting in a γ-counter.
Direct immobilization of platelet-derived growth factor β-receptor (PDGFR-β) was performed by overnight incubation in immunosorbent 96-well plates (Nunc) at 4° C. using 100 ng of purified protein in 100 μl of 15 mM Na2CO3, 35 mM NaHCO3, pH 9.6. Plates were washed once with Tris-buffered saline (TBS, 20 mM Tris-HCL, 150 mM Na Cl, pH 7.4), and nonspecific adsorption was blocked by at least 1 h of incubation with TBS plus 1% bovine serum albumin (BSA). Following washing with TBS plus 0.1% Tween, 3000 cpm of ^125I-PDGF-BB and increasing amounts of unlabeled PDGF-BB or the peptides to be tested were added to duplicate wells and incubated for 3 h at room temperature in TBS plus 0.1% Tween, 1 mM CaCl2, 1 mM MgCl2, and 1% BSA. The plates were washed three times with TBS plus 0.1% Tween, and the bound ligand was removed with 0.1 M citric acid, pH 2.5, before counting in a γ-counter.
The cyclic peptides were analyzed and purified by preparative HPLC (dual-pump Pharmacia system with Waters RCM-μBondapak®-C18-cartridges, 10 μm 300 A 25×100 mm for prep. and 8×100 mm for anal., with flow rates of 8 and 2 ml/mim, respectively; UV detection at 226 and 278 nm), then MS, NMR(600 MHz,1 H) and CD. Solid-phase assays were run, as described in 2.4.

Chain of platelet-derived growth factor β-receptor (PDGFR-β) (P09619 33-1106, species assumed): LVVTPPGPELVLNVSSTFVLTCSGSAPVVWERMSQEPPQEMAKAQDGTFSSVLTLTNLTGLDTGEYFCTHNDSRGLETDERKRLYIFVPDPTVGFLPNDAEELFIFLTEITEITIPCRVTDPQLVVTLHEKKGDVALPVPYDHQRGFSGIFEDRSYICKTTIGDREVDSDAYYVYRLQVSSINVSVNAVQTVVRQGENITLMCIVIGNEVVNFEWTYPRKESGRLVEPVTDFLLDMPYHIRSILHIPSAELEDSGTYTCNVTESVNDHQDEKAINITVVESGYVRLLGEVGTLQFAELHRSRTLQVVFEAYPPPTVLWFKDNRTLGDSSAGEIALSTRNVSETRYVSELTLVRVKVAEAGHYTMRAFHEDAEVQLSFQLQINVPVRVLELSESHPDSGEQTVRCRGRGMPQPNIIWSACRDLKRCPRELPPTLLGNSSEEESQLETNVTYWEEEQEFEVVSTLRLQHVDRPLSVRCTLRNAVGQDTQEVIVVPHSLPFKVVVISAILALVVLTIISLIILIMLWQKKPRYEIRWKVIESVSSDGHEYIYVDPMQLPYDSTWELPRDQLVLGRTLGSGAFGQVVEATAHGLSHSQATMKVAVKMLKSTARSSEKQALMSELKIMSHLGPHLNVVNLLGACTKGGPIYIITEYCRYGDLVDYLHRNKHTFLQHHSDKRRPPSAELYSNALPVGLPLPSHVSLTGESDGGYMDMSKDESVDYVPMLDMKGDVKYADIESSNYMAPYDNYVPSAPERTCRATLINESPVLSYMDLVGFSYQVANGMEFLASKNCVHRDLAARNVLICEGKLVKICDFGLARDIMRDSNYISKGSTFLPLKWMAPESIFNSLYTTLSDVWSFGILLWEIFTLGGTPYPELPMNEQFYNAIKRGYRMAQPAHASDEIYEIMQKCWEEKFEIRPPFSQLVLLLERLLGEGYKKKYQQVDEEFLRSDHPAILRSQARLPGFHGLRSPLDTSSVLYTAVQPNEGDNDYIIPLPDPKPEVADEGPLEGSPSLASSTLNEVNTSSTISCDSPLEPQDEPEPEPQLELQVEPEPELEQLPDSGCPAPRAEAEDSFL

IC50: 2000 µM
SMILES: CC(C)[C@@H]1NC(=O)[C@H](Cc2c[nH]c3ccccc23)NC(=O)[C@H](C)NC(=O)[C@@H]2CCCN2C(=O)[C@H]2CCCN2C(=O)[C@H](C)NC(=O)[C@H](Cc2c[nH]c3ccccc23)NC(=O)[C@H](CCCCN)NC(=O)[C@H](CCCCN)NC(=O)[C@H](CCCNC(=N)N)NC1=O [Example 21] (cyclo(PAWVRKKWA[dP]))
